Legend:
[1] = In vivo GBM rat model: haematology; conditions: GBM rats, 30 mg/kg oral, 5 days, blood at necropsy
Description: (§1) The parameters that were analysed can be seen in Table 11.

U87-MG human glioma cell = experiment: Cell proliferation analysis (MTT); assay type: cell-based; conditions: for activity at 10 µM / inhibition at 10 µM: Homo sapiens, U-87 MG, 48 h, two days, MTT
[2] = system: U138-MG human glioma cell; experiment: Cell proliferation analysis (MTT); assay type: cell-based; conditions: for activity at 10 µM / inhibition at 10 µM: Homo sapiens, 48 h, two days, MTT
[3] = In vivo GBM rat model: plasma chemistry; parameters: CREA. / UA / TCHOL / HDLC: unit not given here; conditions: for ALP / ALT / AST / CREA. / GLU / HDLC / LDH / LDL C / TCHOL / TG / UA: GBM rats, 30 mg/kg oral, 5 days, plasma at necropsy; for levels of AST, ALT and LDH: in comparison to the levels in untreated GBM rats
Description: as §1

Row | Structure (SMILES) | HCT [1] | HGB [1] | MCH [1] | MCHC [1] | MCV [1] | PLT [1] | RBC [1] | WBC [1] | inhibition at 10 µM (U87-MG human glioma cell) | inhibition at 10 µM [2] | ALP [3] | ALT [3] | AST [3] | CREA. [3] | GLU [3] | HDLC [3] | LDH [3] | LDL C [3] | TCHOL [3] | TG [3] | further results
1 | CC(C)CCOc1ccc2c(c1)CCC(=O)N2 [TR-G002, 6-(isopentyloxy)-3,4-dihydroquinolin-2(1H)-one] | 48.53% | 14.88 g/dL | 18.43 pg | 30.71 g/dL | 59.99 fL | 805.75 10^9 /L | 8.11 10^12/L | 3.65 10^9/L | 52% | 48% | 124.22 IU/L | 48.37 IU/L | 129.93 IU/L | 0.31 | 317 mg/dL | 37.5 | 535.72 IU/L | 4.42 mmol/L | 54.38 | 115 mg/dL | activity at 10 µM (U87-MG human glioma cell): 48%; activity at 10 µM [2]: 52%; UA [3]: 1.71
2 | O=C1CCc2cc(OS(=O)(=O)c3cccc4ccccc34)ccc2N1 [TR-G045, 2-oxo-1,2,3,4-tetrahydroquinolin-6-yl naphthalene-1-sulfonate] | 47.24% | 14.12 g/dL | 18.46 pg | 30.54 g/dL | 60.48 fL | 845.60 10^9 /L | 8.34 10^12/L | 4.32 10^9/L | 29% | 30% | 138.47 IU/L | 54.5 IU/L | 104.7 IU/L | 0.35 | 316 mg/dL | 37.58 | 506.78 IU/L | 5.28 mmol/L | 56.52 | 120 mg/dL | activity at 10 µM (U87-MG human glioma cell): 71%; activity at 10 µM [2]: 71%; UA [3]: 1.6; levels of AST, ALT and LDH [3]: significantly decreased
3 | C=Cc1ccc(COc2ccc3c(c2)CCC(=O)N3)cc1 [TR-G053, 6-((4-vinylbenzyl)oxy)-3,4-dihydroquinolin-2(1H)-one] | 48.77% | 14.67 g/dL | 17.83 pg | 30.07 g/dL | 59.33 fL | 823.33 10^9 /L | 8.23 10^12/L | 3.40 10^9/L | 58% | 47% | 125.67 IU/L | 44.57 IU/L | 96.87 IU/L | 0.34 | 293 mg/dL | 34.33 | 514 IU/L | 5.63 mmol/L | 56.33 | 117 mg/dL | lowest cell proliferation (U87-MG human glioma cell): 42%; activity at 10 µM (U87-MG human glioma cell): 42%; top 5 target compounds whose treatment resulted in the lowest proliferation (U87-MG human glioma cell; ranking): top 5; activity at 10 µM [2]: 53%; UA [3]: 1.64; levels of AST, ALT and LDH [3]: significantly decreased
4 | O=C(COc1ccc2c(c1)CCC(=O)N2)N/N=C/c1cnc(-c2ccc(Cl)cc2)nc1 [TR-G066, (E)-N'-((2-(4-chlorophenyl)pyrimidin-5-yl)methylene)-2-((2-oxo-1,2,3,4-tetrahydroquinolin-6-yl)oxy)acetohydrazide] | 46.30% | 15.00 g/dL | 18.51 pg | 31.11 g/dL | 59.60 fL | 799.14 10^9 /L | 8.12 10^12/L | 4.57 10^9/L | 33% | 62% | 137.08 IU/L | 38.94 IU/L | 96.48 IU/L | 0.38 | 295 mg/dL | 34.24 | 476.16 IU/L | 4.94 mmol/L | 58.56 | 122 mg/dL | lowest cell proliferation [2]: 39%; UA [3]: 1.7; levels of AST, ALT and LDH [3]: significantly decreased
5 | C=CCOC(=O)COc1ccc2c(c1)CCC(=O)N2 [TR-G071, Allyl 2-((2-oxo-1,2,3,4-tetrahydroquinolin-6-yl)oxy)acetate] | 48.15% | 14.15 g/dL | 17.65 pg | 31.20 g/dL | 58.65 fL | 823.00 10^9 /L | 8.56 10^12/L | 3.82 10^9/L | 3% | 0% | 130.5 IU/L | 61.25 IU/L | 132.5 IU/L | 0.34 | 295 mg/dL | 34.9 | 504.2 IU/L | 5.65 mmol/L | 53.35 | 129 mg/dL | activity at 10 µM (U87-MG human glioma cell): 97%; activity at 10 µM [2]: 100%; UA [3]: 1.69
6 | COc1cc(NC(=O)COc2ccc3c(c2)CCC(=O)N3)cc(OC)c1 [TR-G091, N-(3,5-dimethoxyphenyl)-2-((2-oxo-1,2,3,4-tetrahydroquinolin-6-yl)oxy)acetamide] | 43.95% | 13.80 g/dL | 17.90 pg | 31.40 g/dL | 56.95 fL | 744.50 10^9 /L | 7.73 10^12/L | 6.56 10^9/L | -1% | 14% | 122.87 IU/L | 46.97 IU/L | 127.9 IU/L | 0.29 | 299 mg/dL | 36.57 | 546.17 IU/L | 5.03 mmol/L | 54.43 | 121 mg/dL | activity at 10 µM (U87-MG human glioma cell): 101%; activity at 10 µM [2]: 86%; UA [3]: 1.7

Source: patent EP4644375A1, “SUBSTITUTED HYDROQUINOLINES FOR THE TREATMENT OF GLIOBLASTOMA MULTIFORME” (Molius Saglik Teknolojileri Anonim Sirketi, priority 2024, dated 2025)
